Measurements taken from PubChem BioAssay AID2060501 (Molecular Pharmacology Branch, DTP, NCI, 2025).

Test system: 282377-053-R-J1-PDC complex spheroids, viability
Test: Anticancer human tumor 282377-053-R-J1-PDC patient-derived colon adenocarcinoma cell line growth inhibition [GQUAD]
Details: for IC50: curve of first compound; for viability, T/C: stronger effect = lower value
In short: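 Viability of tumor cells grown as complex spheroids with endothelial and stromal cells, exposed to drug combinations. Top concentration at or near clinical Cmax (else 10 microM), diluted in half-log increments.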

[1] = second compound 0.0316 µM, first compound 0.0316 µM
[2] = second compound 0.0316 µM, first compound 0.316 µM
[3] = second compound 0.1 µM, first compound 0.0316 µM
[4] = second compound 0.1 µM, first compound 0.316 µM
[5] = second compound 0.316 µM, first compound 0.0316 µM
[6] = second compound 0.316 µM, first compound 0.316 µM
[7] = second compound 1 µM, first compound 0.0316 µM
[8] = second compound 1 µM, first compound 0.316 µM
[9] = second compound 3.16 µM, first compound 0.0316 µM
[10] = second compound 3.16 µM, first compound 0.316 µM
[11] = second compound 10 µM, first compound 0.0316 µM
[12] = second compound 10 µM, first compound 0.316 µM
[13] = second compound 0.0316 µM, first compound 0.1 µM
[14] = second compound 0.0316 µM, first compound 1 µM
[15] = second compound 0.0316 µM, first compound 3.16 µM
[16] = second compound 0.0316 µM, first compound 10 µM
[17] = second compound 0.1 µM, first compound 0.1 µM
[18] = second compound 0.1 µM, first compound 1 µM
[19] = second compound 0.1 µM, first compound 3.16 µM
[20] = second compound 0.1 µM, first compound 10 µM
[21] = second compound 0.316 µM, first compound 0.1 µM
[22] = second compound 0.316 µM, first compound 1 µM
[23] = second compound 0.316 µM, first compound 3.16 µM
[24] = second compound 0.316 µM, first compound 10 µM
[25] = second compound 1 µM, first compound 0.1 µM
[26] = second compound 1 µM, first compound 1 µM
[27] = second compound 1 µM, first compound 3.16 µM
[28] = second compound 1 µM, first compound 10 µM
[29] = second compound 3.16 µM, first compound 0.1 µM
[30] = second compound 3.16 µM, first compound 1 µM
[31] = second compound 3.16 µM, first compound 3.16 µM
[32] = second compound 3.16 µM, first compound 10 µM
[33] = second compound 10 µM, first compound 0.1 µM
[34] = second compound 10 µM, first compound 1 µM
[35] = second compound 10 µM, first compound 3.16 µM
[36] = second compound 10 µM, first compound 10 µM
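Also: spheroids exposed to compounds for 7 days before readout.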
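For viability, T/C in this document: percent of vehicle DMSO control viability with 100% = untreated-like growth.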

`Cc1[nH]c2ccccc2c1CCNCc1ccc(/C=C/C(=O)NO)cc1` + Cc1cnc(CNC(=O)c2c(=O)c3ccc(N4CCCN(C)CC4)nc3n3c2sc2ccccc23)cn1 gave an IC50 (second compound 0.0316 µM) of 140 nM, an IC50 (second compound 0.1 µM) of 122 nM and an IC50 (second compound 0.316 µM) of 63.7 nM. For the same molecule, the IC50 (second compound 1 µM) was 17.7 nM, the IC50 (second compound 3.16 µM) was less than 0.999 nM and the IC50 (second compound 10 µM) was less than 0.999 nM. For the same molecule, the viability, T/C (second compound 0.0316 µM, first compound 0.000999 µM) was 86.4%, the viability, T/C (second compound 0.0316 µM, first compound 0.00316 µM) was 87.7% and the viability, T/C (second compound 0.0316 µM, first compound 0.00999 µM) was 129%. It also gave a viability, T/C [1] of 95.2%, a viability, T/C (second compound 0.0316 µM, first compound 0.0999 µM) of 67.7% and a viability, T/C [2] of 7.24%. For the same molecule, the viability, T/C (second compound 0.1 µM, first compound 0.000999 µM) was 107%, the viability, T/C (second compound 0.1 µM, first compound 0.00316 µM) was 86.6% and the viability, T/C (second compound 0.1 µM, first compound 0.00999 µM) was 106%. It also gave a viability, T/C [3] of 84.3%, a viability, T/C (second compound 0.1 µM, first compound 0.0999 µM) of 60.7% and a viability, T/C [4] of 1.3%. It also gave a viability, T/C (second compound 0.316 µM, first compound 0.000999 µM) of 88.4%, a viability, T/C (second compound 0.316 µM, first compound 0.00316 µM) of 75.8% and a viability, T/C (second compound 0.316 µM, first compound 0.00999 µM) of 86.2%. The viability, T/C [5] was 67.8%, the viability, T/C (second compound 0.316 µM, first compound 0.0999 µM) was 37.9% and the viability, T/C [6] was 2.14%. It also gave a viability, T/C (second compound 1 µM, first compound 0.000999 µM) of 62.9%, a viability, T/C (second compound 1 µM, first compound 0.00316 µM) of 53.8% and a viability, T/C (second compound 1 µM, first compound 0.00999 µM) of 56.3%. It also gave a viability, T/C [7] of 43%, a viability, T/C (second compound 1 µM, first compound 0.0999 µM) of 33% and a viability, T/C [8] of 0.07%. It also gave a viability, T/C (second compound 3.16 µM, first compound 0.000999 µM) of 51.1%, a viability, T/C (second compound 3.16 µM, first compound 0.00316 µM) of 48% and a viability, T/C (second compound 3.16 µM, first compound 0.00999 µM) of 38.5%. The viability, T/C [9] was 40.5%, the viability, T/C (second compound 3.16 µM, first compound 0.0999 µM) was 19.6% and the viability, T/C [10] was 0.2%. It also gave a viability, T/C (second compound 10 µM, first compound 0.000999 µM) of 33.8%, a viability, T/C (second compound 10 µM, first compound 0.00316 µM) of 32.9% and a viability, T/C (second compound 10 µM, first compound 0.00999 µM) of 47%. It also gave a viability, T/C [11] of 37%, a viability, T/C (second compound 10 µM, first compound 0.0999 µM) of 0.26% and a viability, T/C [12] of 0.36%.

`CC1COCCN1c1cc(-c2ccnn2C)c2ccnc(-c3ccn[nH]3)c2n1` (stereo unspecified) + Cc1[nH]c2ccc(F)cc2c1-c1nc2c3cccnc3c3ncccc3c2[nH]1 was tested, and the IC50 (second compound 0.0316 µM) was 659 nM, the IC50 (second compound 0.1 µM) was 506 nM and the IC50 (second compound 0.316 µM) was 400 nM. It also gave an IC50 (second compound 1 µM) of 460 nM, an IC50 (second compound 3.16 µM) of 40 nM and an IC50 (second compound 10 µM) of less than 31.6 nM. The viability, T/C [1] was 83.8%, the viability, T/C [13] was 82.6% and the viability, T/C [2] was 73.3%. It also gave a viability, T/C [14] of 36.4%, a viability, T/C [15] of 27.5% and a viability, T/C [16] of 20.9%. It also gave a viability, T/C [3] of 79.3%, a viability, T/C [17] of 85% and a viability, T/C [4] of 56.5%. It also gave a viability, T/C [18] of 37.3%, a viability, T/C [19] of 24.2% and a viability, T/C [20] of 19.7%. The viability, T/C [5] was 103%, the viability, T/C [21] was 77.5% and the viability, T/C [6] was 49.4%. The viability, T/C [22] was 37.7%, the viability, T/C [23] was 30.5% and the viability, T/C [24] was 17.6%. It also gave a viability, T/C [7] of 87.2%, a viability, T/C [25] of 79.3% and a viability, T/C [8] of 59%. For the same molecule, the viability, T/C [26] was 31.9%, the viability, T/C [27] was 21.5% and the viability, T/C [28] was 18.8%. It also gave a viability, T/C [9] of 52.9%, a viability, T/C [29] of 38.6% and a viability, T/C [10] of 12.8%. The viability, T/C [30] was 8.91%, the viability, T/C [31] was 4.88% and the viability, T/C [32] was 4.03%. It also gave a viability, T/C [11] of 35.6%, a viability, T/C [33] of 23.9% and a viability, T/C [12] of 9.76%. For the same molecule, the viability, T/C [34] was 5.71%, the viability, T/C [35] was 3.51% and the viability, T/C [36] was 2.86%.

Molecule `Nc1ccn(C2OC(CO)C(O)C2(F)F)c(=O)n1` (stereo unspecified) + Cc1[nH]c2ccc(F)cc2c1-c1nc2c3cccnc3c3ncccc3c2[nH]1 has an IC50 (second compound 0.0316 µM) of 211 nM, an IC50 (second compound 0.1 µM) of 222 nM and an IC50 (second compound 0.316 µM) of 216 nM. It also gave an IC50 (second compound 1 µM) of 228 nM, an IC50 (second compound 3.16 µM) of 81 nM and an IC50 (second compound 10 µM) of less than 31.6 nM. It also gave a viability, T/C [1] of 119%, a viability, T/C [13] of 74.1% and a viability, T/C [2] of 35.8%. The viability, T/C [14] was 30.9%, the viability, T/C [15] was 29.4% and the viability, T/C [16] was 21.1%. It also gave a viability, T/C [3] of 106%, a viability, T/C [17] of 81.1% and a viability, T/C [4] of 35.8%. The viability, T/C [18] was 29.5%, the viability, T/C [19] was 31.8% and the viability, T/C [20] was 18.9%. For the same molecule, the viability, T/C [5] was 97%, the viability, T/C [21] was 86.3% and the viability, T/C [6] was 32%. For the same molecule, the viability, T/C [22] was 28.4%, the viability, T/C [23] was 26.7% and the viability, T/C [24] was 20.5%. The viability, T/C [7] was 105%, the viability, T/C [25] was 74.4% and the viability, T/C [8] was 37.4%. For the same molecule, the viability, T/C [26] was 30.1%, the viability, T/C [27] was 23% and the viability, T/C [28] was 16%. For the same molecule, the viability, T/C [9] was 74.8%, the viability, T/C [29] was 44.5% and the viability, T/C [10] was 18.8%. The viability, T/C [30] was 14.9%, the viability, T/C [31] was 17.6% and the viability, T/C [32] was 9.41%. It also gave a viability, T/C [11] of 39.2%, a viability, T/C [33] of 28.9% and a viability, T/C [12] of 16.2%. For the same molecule, the viability, T/C [34] was 10.3%, the viability, T/C [35] was 10.9% and the viability, T/C [36] was 8.65%.
